Data: patent publication US20150218212A1, “FLUORINATED EPOXYKETONE-BASED TETRAPEPTIDE COMPOUNDS AND USES THEREOF AS PROTEASOME INHIBITORS” (FLUORINOV PHARMA INC., priority 2012, published 2015)

Tests used:
Format in all cases: cell-based, human
UO-31 = assay: NCI screening panel, UO-31 (Renal Cancer)
Method: (§1) Representative compounds of Formula I were screened using the National Cancer Institute (NCI) screening panel, which consists of a panel of human tumor cell lines, representing leukemia, melanoma, and cancers of the lung, colon, ovary, breast, prostate and renal system.
(§2) After 24 h, two plates of each cell line are fixed in situ with TCA, to represent a measurement of the cell population for each cell line at the time of drug addition (Tz). Experimental drugs are solubilised in dimethyl sulfoxide at 400-fold the desired final maximum test concentration and stored frozen prior to use. At the time of drug addition, an aliquot of frozen concentrate is thawed and diluted to twice the desired final maximum test concentration with complete medium containing 50 μg/mL gentamicin. Additional four, 10-fold or ½ log serial dilutions are made to provide a total of five drug concentrations plus control. Aliquots of 100 μl of these different drug dilutions are added to the appropriate microtiter wells already containing 100 μl of medium, resulting in the required final drug concentrations.
(§3) Following drug addition, the plates are incubated for an additional 48 h at 37° C., 5% CO2, 95% air, and 100% relative humidity. For adherent cells, the assay is terminated by the addition of cold TCA (trichloroacetic acid). Cells are fixed in situ by the gentle addition of 50 μl of cold 50% (w/v) TCA (final concentration, 10% TCA) and incubated for 60 minutes at 4° C. The supernatant is discarded, and the plates are washed five times with tap water and air dried. Sulforhodamine B (SRB) solution (100 μl) at 0.4% (w/v) in 1% acetic acid is added to each well, and plates are incubated for 10 minutes at room temperature. After staining, unbound dye is removed by washing five times with 1% acetic acid and the plates are air dried. Bound stain is subsequently solubilised with 10 mM trizma base, and the absorbance is read on an automated plate reader at a wavelength of 515 nm. For suspension cells, the methodology is the same except that the assay is terminated by fixing settled cells at the bottom of the wells by gently adding 50 μl of 80% TCA (final concentration, 16% TCA). Using the seven absorbance measurements [time zero, (Tz), control growth, (C), and test growth in the presence of drug at the five concentration levels (Ti)], the percentage growth is calculated at each of the drug concentrations levels. Percentage growth inhibition is calculated as: [(Ti−Tz)/(C−Tz)]×100 for concentrations for which Ti>/=Tz and [(Ti−Tz)/Tz]×100 for concentrations for which Ti<Tz.
(§4) Three dose response parameters are calculated for each experimental agent. Growth inhibition of 50% (GI50) is calculated from [(Ti−Tz)/(C−Tz)]×100=50, which is the drug concentration resulting in a 50% reduction in the net protein increase (as measured by SRB staining) in control cells during the drug incubation. The drug concentration resulting in total growth inhibition (TGI) is calculated from Ti=Tz. The LC50 (concentration of drug resulting in a 50% reduction in the measured protein at the end of the drug treatment as compared to that at the beginning) indicating a net loss of cells following treatment is calculated from [(Ti−Tz)/Tz]×100=−50. Values are calculated for each of these three parameters if the level of activity is reached. However, if the effect is not reached or is exceeded, the value for that parameter is expressed as greater or less than the maximum or minimum concentration tested.

ACHN = assay: NCI screening panel, ACHN (Renal Cancer)
Method: as §1, §2, §3, §4

BT-549 = assay: NCI screening panel, BT-549 (Breast Cancer)
Method: as §1, §2, §3, §4

PC-3 = assay: NCI screening panel, PC-3 (Prostate Cancer)
Method: as §1, §2, §3, §4

OVCAR-4 = assay: NCI screening panel, OVCAR-4 (Ovarian Cancer)
Method: as §1, §2, §3, §4

MDA-MB-468 = assay: NCI screening panel, MDA-MB-468 (Breast Cancer)
Method: as §1, §2, §3, §4

SF-268 = assay: NCI screening panel, SF-268 (CNS Cancer)
Method: as §1, §2, §3, §4

RXF 393 = assay: NCI screening panel, RXF 393 (Renal Cancer)
Method: as §1, §2, §3, §4

SK-OV-3 = assay: NCI screening panel, SK-OV-3 (Ovarian Cancer)
Method: as §1, §2, §3, §4

HS 578T = assay: NCI screening panel, HS 578T (Breast Cancer)
Method: as §1, §2, §3, §4

COLO 205 = assay: NCI screening panel, COLO 205 (Colon Cancer)
Method: as §1, §2, §3, §4

NCI/ADR-RES = assay: NCI screening panel, NCI/ADR-RES (Ovarian Cancer)
Method: as §1, §2, §3, §4

CAKI-1 = assay: NCI screening panel, CAKI-1 (Renal Cancer)
Method: as §1, §2, §3, §4

Row | SMILES | Log10GI50 (UO-31) | Log10LC50 (UO-31) | Log10TGI50 (UO-31) | Log10GI50 (ACHN) | Log10LC50 (ACHN) | Log10TGI50 (ACHN) | Log10GI50 (BT-549) | Log10TGI50 (BT-549) | Log10GI50 (PC-3) | Log10LC50 (PC-3) | Log10TGI50 (PC-3) | Log10GI50 (OVCAR-4) | Log10LC50 (OVCAR-4) | Log10TGI50 (OVCAR-4) | Log10GI50 (MDA-MB-468) | Log10LC50 (MDA-MB-468) | Log10TGI50 (MDA-MB-468) | Log10GI50 (SF-268) | Log10LC50 (SF-268) | Log10TGI50 (SF-268) | also measured
1 | CC(C)C[C@H](NC(=O)[C@H](COC(F)F)NC(=O)CN1CCOCC1)C(=O)N[C@@H](COC(F)F)C(=O)N[C@@H](Cc1ccccc1)C(=O)[C@@]1(C)CO1 [Example 4, (2S)-N-[(1S)-2-[[(1S)-1-benzyl-2-[(2R)-2-methyloxiran-2-yl]-2-oxo-ethyl]amino]-1-(difluoromethoxymethyl)-2-oxo-ethyl]-2-[[(2S)-3-(difluoromethoxy)-2-[(2-mor-pholinoacetyl)amino]propanoyl]amino]-4 methyl-pentanamide] | −5.77 | −4.22 | −5.24 | −6.32 | >−4.00 | >−4.00 | −7.64 | −6.91 | −7.18 | −4.68 | −6.40 | −7.43 | >−4.00 | −6.34 | −7.35 | >−4.00 | −6.37 | −7.58 | >−4.00 | −6.82 | Log10GI50 (RXF 393): −6.83; Log10LC50 (RXF 393): −6.05; Log10TGI50 (RXF 393): −6.44; Log10GI50 (SK-OV-3): −6.84; Log10LC50 (SK-OV-3): >−4.00; Log10TGI50 (SK-OV-3): −6.02; Log10GI50 (HS 578T): −7.71; Log10LC50 (HS 578T): >−4.00; Log10TGI50 (HS 578T): −7.01; Log10GI50 (COLO 205): −7.25; Log10LC50 (COLO 205): −4.46; Log10TGI50 (COLO 205): −6.28; Log10GI50 (NCI/ADR-RES): −5.19; Log10LC50 (NCI/ADR-RES): >−4.00; Log10TGI50 (NCI/ADR-RES): >−4.00; Log10GI50 (CAKI-1): −6.20; Log10LC50 (CAKI-1): >−4.00; Log10TGI50 (CAKI-1): −5.22
2 | CC(C)C[C@H](NC(=O)[C@H](COC(F)F)NC(=O)[C@H](COC(F)F)NC(=O)[C@H](CCc1ccccc1)NC(=O)CN1CCOCC1)C(=O)[C@@]1(C)CO1 [Example 7, (2S)-N-[(1S)-1-(difluoromethoxymethyl)-2-[[(1S)-1-(difluoromethoxymethyl)-2-[[(1S)-3-methyl-1-[(2R)-2-methyloxirane-2-carbo-nyl]butyl]amino]-2-oxo-ethyl]amino]-2-oxo-ethyl]-2-[(2-morpholinoacetyl)amino]-4-phenyl-butanamide] | −5.97 | −4.70 | −5.45 | −6.31 | >−4.00 | >−4.00 | −7.68 | −7.07 | −7.49 | −5.41 | −6.86 | −7.69 | >−4.00 | >−4.00 | −7.58 | −4.78 | −7.09 | −7.73 | >−4.00 | −7.21 | Log10LC50 (BT-549): >−4.00; Log10GI50 (RXF 393): −6.93; Log10LC50 (RXF 393): −6.22; Log10TGI50 (RXF 393): −6.57; Log10GI50 (SK-OV-3): −6.94; Log10LC50 (SK-OV-3): >−4.00; Log10TGI50 (SK-OV-3): −5.46; Log10GI50 (HS 578T): −7.70; Log10LC50 (HS 578T): >−4.00; Log10TGI50 (HS 578T): −6.05; Log10GI50 (COLO 205): −7.23; Log10LC50 (COLO 205): >−4.00; Log10TGI50 (COLO 205): −5.89; Log10GI50 (NCI/ADR-RES): −5.16; Log10LC50 (NCI/ADR-RES): >−4.00; Log10TGI50 (NCI/ADR-RES): >−4.00; Log10GI50 (CAKI-1): −6.40; Log10LC50 (CAKI-1): >−4.00; Log10TGI50 (CAKI-1): −5.62
3 | CC(C)C[C@H](NC(=O)[C@H](Cc1ccccc1)NC(=O)[C@H](COC(F)F)NC(=O)[C@H](COC(F)F)NC(=O)CN1CCOCC1)C(=O)[C@@]1(C)CO1 [Example 11, (2S)-2-[[(2S)-3-(difluoromethoxy)-2-[[(2S)-3-(difluoromethoxy)-2-[(2-morpholinoacetyl)-amino]propanoyl]amino]propanoyl]amino]-N-[(1S)-3-methyl-1-[(2R)-2-methyloxirane-2-carbonyl]butyl]-3-phenyl-propanamide] | −6.17 | −4.24 | −5.47 | −6.40 | >−4.00 | >−4.00 | −7.76 | −7.06 | −7.32 | >−4.00 | −6.51 | −7.68 | >−4.00 | −5.69 | −7.62 | −4.67 | −7.06 | −7.66 | −4.07 | −7.22 | Log10LC50 (BT-549): >−4.00; Log10GI50 (RXF 393): −6.98; Log10LC50 (RXF 393): −6.23; Log10TGI50 (RXF 393): −6.60; Log10GI50 (SK-OV-3): −6.85; Log10LC50 (SK-OV-3): >−4.00; Log10TGI50 (SK-OV-3): −4.84; Log10GI50 (HS 578T): −7.70; Log10LC50 (HS 578T): >−4.00; Log10TGI50 (HS 578T): −6.97; Log10GI50 (COLO 205): −7.21; Log10LC50 (COLO 205): >−4.00; Log10TGI50 (COLO 205): −5.31; Log10GI50 (NCI/ADR-RES): −5.16; Log10LC50 (NCI/ADR-RES): >−4.00; Log10TGI50 (NCI/ADR-RES): >−4.00; Log10GI50 (CAKI-1): −6.39; Log10LC50 (CAKI-1): >−4.00; Log10TGI50 (CAKI-1): −5.55
